Source: EP0399834B1, “1,2,4-Triazole derivatives, their preparation and their use for treating hypertension or respiratory tract disorders” (Beecham Group p.l.c., priority 1989, dated 1990)

Test system: Spontaneously hypertensive rats
Test: Antihypertensive activity: systolic blood pressure by tail cuff method
Format: in vivo
Conditions: maximum at 1-4 hours post dose
Experimental: Systolic blood pressures were recorded by a modification of the tail cuff method described by I.M. Claxton, M.G. Palfreyman, R.H. Poyser, R.L. Whiting, European Journal of Pharmacology, 37, 179 (1976). A W+W BP recorder, model 8005 was used to display pulses. Prior to all measurements rats were placed in a heated environment (33.5 ± 0.5 °C) before transfer to a restraining cage. Each determination of blood pressure was the mean of at least 6 readings. Spontaneously hypertensive rats (ages 12-18 weeks) with systolic blood pressures >180 mmHg were considered hypertensive.

With `Cn1nc(N)nc1N[C@@H]1c2cc(C#N)ccc2OC(C)(C)[C@H]1O` (relative stereo) [Example E1, N⁵-[trans-4-(6-Cyano-2,3-dihydro-2,2-dimethyl-2H-benzopyran-3-ol)]-1-methyl-1H-1,2,4-triazole-3,5-diamine] the “% b.p. fall” value (Dose 0.1 mg/kg) was 30%.

With `Cn1ncnc1N[C@@H]1c2cc(C#N)ccc2OC(C)(C)[C@H]1O` (relative stereo) [Example E2, trans-N⁵-4-[6-cyano-3,4-dihydro-2,2-dimethyl-2H-benzopyran-3-ol]amino-1-methyl-1H-1,2,4-triazole] the “% b.p. fall” value (Dose 0.3 mg/kg) was 22%.

In the case of `Cc1nc(N[C@@H]2c3cc(C#N)ccc3OC(C)(C)[C@H]2O)n(C)n1` (relative stereo) [Example E4, trans-N⁵-4-[6-Cyano-3,4-dihydro-2,2-dimethyl-2H-benzopyran-3-ol]amino-1,3-dimethyl-1H-1,2,4-triazole], the “% b.p. fall” value (Dose 1.0 mg/kg) is reported as 22%.

`Cn1nc(N)nc1N[C@@H]1c2cc(C#N)ccc2OC(C)(C)[C@H]1O` (relative stereo) [Example E7, (3S,4R)-N⁵-[trans-4-(6-cyano-3,4-dihydro-2,2-dimethyl-2H-1-benzopyran-3-ol)]-1-methyl-1H-1,2,4-triazole-3,5-diamine] was tested, and the “% b.p. fall” value (Dose 0.05 mg/kg) was 45%.
